For assay [1], the system named is pseudoviral particles expressing the Spike from SARS-CoV-2. In words: microbe, parasite or virus in culture. The settings on record: SARS-CoV-2 D614G pseudovirus. Type of assay: cell-based.
Assay [2] deals with interaction of sACE2 with the full SARS-CoV-2 Spike expressed at the cell surface (Severe acute respiratory syndrome coronavirus 2, UniProt P0DTC2, D614G). It is filed as binding.
Assay [3] deals with SARS-CoV-2 Spike (Severe acute respiratory syndrome coronavirus 2, UniProt P0DTC2, D614G). It is filed as cell-based.
For assay [4], the system named is pseudoviral particles bearing the Spike glycoproteins from the major VOCs (Alpha, Beta, Gamma, Delta and Omicron). Type of assay: cell-based, SARS-CoV-2.
The subject of assay [5] is SARS-CoV-2 D614G Spike Q498V pseudoviral particles. Type of assay: cell-based.
The test system of assay [6] is SARS-CoV-2 D614G Spike Y505T pseudoviral particles. It is filed as cell-based.
In assay [7] the test system is authentic SARS-CoV-2 D614G. Type of assay: cell-based.

pIC50: −log10 of the molar value.

For `O[C@H](COc1cccc(OC[C@@H](O)CN2CCCCC2)c1)CN1CCCCC1` [(S,S)-VE607, (2S,2'S)-3,3′-(1,3-phenylenebis(oxy))bis(1-(piperidin-1-yl)propan-2-ol)], the “capacity to neutralize SARS-CoV-2 pseudovirus particles compared with commercially available VE607” value in assay [1] is reported as “same capacity as commercially available VE607”.
As a reminder, the pIC50 is the IC50 on a negative log10 scale, so that one unit is a factor of ten. A low value points to a high IC50. Consider `C=CCC(/C=C/OCC(O)CN(CC)CCC)OCC(O)CN(CC)CCC` (centres unmarked) [VE607], for which, in assay [2], the “competition with sACE2 for interaction with Spike” value is on record as “no competition”. Besides, in assay [3], the “S1 shedding / trimer stability” value is recorded as “decrease shedding”. Also, in assay [4], the IC50 values result is on record as “low micromolar range”. Moreover, the pIC50 in assay [5] is 5.74; in assay [6], under 4.40; in assay [7], 5.62.
`O[C@@H](COc1cccc(OC[C@H](O)CN2CCCCC2)c1)CN1CCCCC1` [(R,R)-VE607, (2R,2′R)-3,3′-(1,3-phenylenebis(oxy))bis(1-(piperidin-1-yl)propan-2-ol)]: the “capacity to neutralize SARS-CoV-2 pseudovirus particles compared with commercially available VE607” value in assay [1] was “same capacity as commercially available VE607”.

(Values after patent publication US20250144087A1, “USE OF VE607 FOR THE TREATMENT OF SARS-COV-2 INFECTIONS AND RELATED DISEASES” (priority 2022, published 2025).)
